Here are results for 18 compounds from patent US7462615B2, “Inhibitors of cysteine proteases, the pharmaceutical compositions thereof and their therapeutic applications” (Hybrigenics SA, priority 2005, dated 2008).

The assay concerns the target T1, USP8 (Homo sapiens, UniProt P40818).
T1 construct: His tag (from vector pFastBac-HT) (N); made in house; host or cells: Sf9 or High Five insect cells (baculovirus)
T1 sequence (P40818 1-1118): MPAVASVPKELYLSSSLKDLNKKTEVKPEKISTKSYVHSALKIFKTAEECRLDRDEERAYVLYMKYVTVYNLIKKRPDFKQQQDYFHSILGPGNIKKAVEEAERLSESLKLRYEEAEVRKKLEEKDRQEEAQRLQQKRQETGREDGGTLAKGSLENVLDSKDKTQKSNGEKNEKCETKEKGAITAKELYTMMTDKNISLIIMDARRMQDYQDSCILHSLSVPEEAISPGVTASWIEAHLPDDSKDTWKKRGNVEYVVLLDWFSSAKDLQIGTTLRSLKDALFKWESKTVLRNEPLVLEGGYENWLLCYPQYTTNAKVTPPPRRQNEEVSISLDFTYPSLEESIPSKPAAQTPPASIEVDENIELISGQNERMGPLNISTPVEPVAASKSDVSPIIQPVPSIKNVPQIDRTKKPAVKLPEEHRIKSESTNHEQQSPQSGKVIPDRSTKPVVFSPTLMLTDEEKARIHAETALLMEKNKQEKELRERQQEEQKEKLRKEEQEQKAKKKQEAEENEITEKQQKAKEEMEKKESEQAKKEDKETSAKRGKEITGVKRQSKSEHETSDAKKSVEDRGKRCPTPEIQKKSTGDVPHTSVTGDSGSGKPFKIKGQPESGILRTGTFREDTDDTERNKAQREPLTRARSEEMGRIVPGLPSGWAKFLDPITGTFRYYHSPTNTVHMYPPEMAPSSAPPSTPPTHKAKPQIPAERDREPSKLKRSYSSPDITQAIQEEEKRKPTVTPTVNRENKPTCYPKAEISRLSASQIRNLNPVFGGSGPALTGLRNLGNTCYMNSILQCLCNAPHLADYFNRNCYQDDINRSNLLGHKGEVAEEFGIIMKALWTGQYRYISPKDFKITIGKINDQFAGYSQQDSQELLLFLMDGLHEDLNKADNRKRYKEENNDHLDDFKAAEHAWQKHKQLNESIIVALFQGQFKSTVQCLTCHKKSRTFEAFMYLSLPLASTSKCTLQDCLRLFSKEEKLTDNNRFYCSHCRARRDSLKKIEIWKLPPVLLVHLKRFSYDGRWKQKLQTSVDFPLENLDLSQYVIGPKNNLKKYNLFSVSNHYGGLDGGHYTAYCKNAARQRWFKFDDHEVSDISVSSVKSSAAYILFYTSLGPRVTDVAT
Kind of assay: USP8 Activity Assay. It counts as biochemical. To be noted: 400 nM Ub-AMC; 630 pM enzyme; pH8.8; pre-incubated 30 minutes at 25° C., 60 minutes at 37° C.; sigmoidal fit; read-out: USP 8 (Inhibition of cysteine protease activities). An excerpt:
The cDNA encoding USP8 was obtained by PCR amplification from placenta mRNA. USP8 cDNA was subcloned by PCR into a baculovirus expression vector (pFastBac-HT; Invitrogen). A cDNA encoding a mutated USP8 was generated by mutagenic PCR. The corresponding protein encodes a cysteine to alanine substitution at residue 786. The sequences were ascertained by sequencing of the entire open reading frame. Bacmids encoding USP7 were generated following DH10bac transposition. The corresponding bacmids were transfected into insect cells (Sf9). Viruses were recovered from culture supernatant and amplified twice. Insect cells (Sf9 or High Five; Invitrogen) were infected for 72 hours. Total cell lysates were harvested and lyzed in lysis buffer (Tris HCl 50 mM pH7.6; 0.75% NP40; 500 mM NaCl; 10% glycerol; 1 mM DTT; 10 mM imidazole; Protease Inhibitor Cocktail; AEBSF 20 μg.ml^−1; Aprotinin 10 μg.ml^−1). Proteins were affinity purified on metal affinity resins (Talon Metal affinity resin; BD Biosciences). Bound materials were extensively washed in wash buffer (50 mM Sodium Phosphate pH 7.0; 300 mM NaCl; 10 mM imidazole; 0.5% Triton X-100; 10% glycerol) and eluted from the resin in 250 mM imidazole-containing wash buffer. Proteins were dialyzed in dialysis buffer (Tris HCl pH 7.6 20 mM; NaCl 200 mM; DTT 1 mM; EDTA 1 mM; 10% Glycerol). Proteins purifications were analyzed on 4-12% NuPAGE (Invitrogen).
USP8 was diluted in USP buffer (50 mM Tris HCl; 0.5 mM EDTA; 5 mM DTT; 0.01% Triton X-100; Bovine Serum Albumin 0.05 mg.ml^−1 pH8.8). Compounds stocks (100 mM) were stored at −20° C. in DMSO.
Reactions were performed as duplicates in Black LJL 96 well plates (HE microplates; Molecular Devices; 20 μl final reaction volume). The substrate concentration for USP8 was 400 nM Ub-AMC (Boston Biochem). The concentrations of the enzyme (USP8) in specificity assays was 630 pM. The concentrations were determined in order to perform specificity assays under initial velocities at fixed substrate concentration. Compounds were pre-incubated with enzymes for 30 minutes at 25° C. Reactions were initiated by addition of substrate to the plates containing the enzymes (+/−compounds) diluted in assay buffer. Reactions were incubated for 60 minutes at 37° C. Reactions were stopped by adding acetic acid (100 mM final). Readings were performed on a Pherastar Fluorescent Reader (BMG). λ Emission 380 nm; λ Excitation=460 nm. Data (mean values +/− standard deviation) were analyzed as % of control (no compound) and plotted as percentage versus the Log of the compound concentration using GraphPad (Prism). Data were fitted to a sigmoidal model (variable slope).
Take `O=C1c2ccccc2-c2nc3nnc(CO)n3nc21` [Example 1h/A, 1-Hydroxymethyl-2,3,4,10,10a-pentaaza-cyclopenta[b]fluoren-9-one]: the IC50 was determined as 670 nM. For `Cc1nnc2nc3c(nn12)C(=O)c1ccccc1-3` [Example 1b/A, 1-Methyl-2,3,4,10,10a-pentaaza-cyclopenta[b]fluoren-9-one] the value was 701 nM; for `O=C1c2ccccc2-c2nc3nn(Cc4ccccc4)nc3nc21` [Example 4b, 2-Benzyl-2H-1,2,3,4,10-pentaaza-cyclopenta[b]fluoren-9-one], 15000 nM. As to `CCCCc1nnc2nc3c(nn12)-c1ccccc1C3=O` [Example 1f/B, 3-Butyl-1,2,3a,4,10-pentaaza-cyclopenta[b]fluoren-9-one], the IC50 amounted to 151 nM. For `Nc1nnc2nc3c(nn12)-c1ccccc1C3=O` [Example 1c/B, 3-Amino-1,2,3a,4,10-pentaaza-cyclopenta[b]fluoren-9-one] the value was 81 nM.

For `CC(C)Cc1nnc2nc3c(nn12)C(=O)c1ccccc1-3` [Example 1g/A, 1-Isobutyl-2,3,4,10,10a-pentaaza-cyclopenta[b]fluoren-9-one], the IC50 was found to be 538 nM. For `O=C1c2ccccc2-c2nc3nnc(C4CC4)n3nc21` [Example 1j/A, 1-Cyclopropyl-2,3,4,10,10a-pentaaza-cyclopenta[b]fluoren-9-one] the value was 2500 nM; for `O=C1c2ccccc2-c2nn3c(CO)nnc3nc21` [Example 1h/B], 164 nM. For `Cn1nc2nc3c(nc2n1)-c1ccccc1C3=O` [Example 4a, 2-Methyl-2H-1,2,3,4,10-pentaaza-cyclopenta[b]fluoren-9-one] the value was 10000 nM.

In the case of `CCCc1nnc2nc3c(nn12)C(=O)c1ccccc1-3` [Example 1e/A, 1-Propyl-2,3,4,10,10a-pentaaza-cyclopenta[b]fluoren-9-one], the IC50 is 952 nM. To `O=C1c2ccccc2-c2nc3nnc(Cc4ccccc4)n3nc21` [Example 1k/A, 1-Benzyl-2,3,4,10,10a-pentaaza-cyclopenta[b]fluoren-9-one] belongs 663 nM; to `O=C1c2ccccc2-c2nn3c(Cc4ccccc4)nnc3nc21` [Example 1k/B, 3-Benzyl-1,2,3a,4,10-pentaaza-cyclopenta[b]fluoren-9-one], 166 nM; to “6-(7)-Chloro-1-methyl-2,3,4,10,10a-pentaaza-cyclopenta[b]fluoren-9-one [Example 3/A]”, 301 nM. To `CC(C)Cc1nnc2nc3c(nn12)-c1ccccc1C3=O` [Example 1g/B, 3-Isobutyl-1,2,3a,4,10-pentaaza-cyclopenta[b]fluoren-9-one] belongs 167 nM; to `Nc1nnc2nc3c(nn12)C(=O)c1ccccc1-3` [Example 1c/A, 1-Amino-2,3,4,10,10a-pentaaza-cyclopenta[b]fluoren-9-one], 840 nM; to `CCc1nnc2nc3c(nn12)C(=O)c1ccccc1-3` [Example 1d/A, 1-Ethyl-2,3,4,10,10a-pentaaza-cyclopenta[b]fluoren-9-one], 537 nM. For the compound `CCCCc1nnc2nc3c(nn12)C(=O)c1ccccc1-3` [Example 1f/A, 1-Butyl-2,3,4,10,10a-pentaaza-cyclopenta[b]fluoren-9-one], the IC50 was 830 nM. To `Cc1nnc2nc3c(nn12)-c1ccc(Cl)cc1C3=O` [Example 3/B, 7-Chloro-3-methyl-1,2,3a, 4,10-pentaaza-cyclopenta[b]fluoren-9-one] belongs 119 nM.
